{"source": "ChEMBL document CHEMBL3885881", "about": "“DrugMatrix”", "organism": "Rattus norvegicus", "experiment": "DrugMatrix - Regimen: Daily Repeat", "assay_type": "toxicity, organism-based, Sprague-Dawley", "set-up": "regimen Daily Repeat, gender Male, age 6-8 weeks", "conditions": "in vivo, po, 30 mg/kg, route oral GAVAGE, dose level Low, vehicle .5 % CMC; for ABSOLUTE BASOPHIL / ABSOLUTE EOSINOPHIL / ABSOLUTE LYMPHOCYTE / ABSOLUTE MONOCYTE / ABSOLUTE SEGMENTED NEUTROPHIL / BASOPHIL / EOSINOPHIL / ERYTHROCYTE COUNT / HEMATOCRIT / HEMOGLOBIN / LEUKOCYTE COUNT / LYMPHOCYTE / MEAN CORPUSCULAR HEMOGLOBIN / MEAN CORPUSCULAR HEMOGLOBIN CONCENTRATION / MEAN CORPUSCULAR VOLUME / MONOCYTE / NEUTROPHIL / NUCLEATED RED BLOOD CELLS / PLATELET COUNT: tissue Blood; for ALANINE AMINOTRANSFERASE / ALBUMIN / ALKALINE PHOSPHATASE / ASPARTATE AMINOTRANSFERASE / BLOOD UREA NITROGEN / CARBON DIOXIDE / CHLORIDE / CHOLESTEROL / CREATINE PHOSPHOKINASE / CREATININE / GLUCOSE / LACTATE DEHYDROGENASE / LIPASE / PHOSPHORUS / POTASSIUM / SODIUM / TOTAL BILIRUBIN / TOTAL PROTEIN / URIC ACID: tissue Plasma", "data": [{"compound": "CC(=O)CCCCn1c(=O)c2c(ncn2C)n(C)c1=O", "note": "[PENTOXIFYLLINE]", "values": [{"measurement": "ABSOLUTE BASOPHIL", "setting": "72 h, time 3 day", "value": 0, "unit": "CELLS/uL"}, {"measurement": "ABSOLUTE EOSINOPHIL", "setting": "72 h, time 3 day", "value": 54.67, "unit": "CELLS/uL"}, {"measurement": "ABSOLUTE LYMPHOCYTE", "setting": "72 h, time 3 day", "value": 16028, "unit": "CELLS/uL"}, {"measurement": "ABSOLUTE MONOCYTE", "setting": "72 h, time 3 day", "value": 106.67, "unit": "CELLS/uL"}, {"measurement": "ABSOLUTE SEGMENTED NEUTROPHIL", "setting": "72 h, time 3 day", "value": 1677.33, "unit": "CELLS/uL"}, {"measurement": "BASOPHIL", "setting": "72 h, time 3 day", "value": 0, "unit": "%"}, {"measurement": "EOSINOPHIL", "setting": "72 h, time 3 day", "value": 0.33, "unit": "%"}, {"measurement": "ERYTHROCYTE COUNT", "setting": "72 h, time 3 day", "value": 4.93, "unit": "x10E6/uL"}, {"measurement": "HEMATOCRIT", "setting": "72 h, time 3 day", "value": 32.23, "unit": "%"}, {"measurement": "HEMOGLOBIN", "setting": "72 h, time 3 day", "value": 12.6, "unit": "G/DL"}, {"measurement": "LEUKOCYTE COUNT", "setting": "72 h, time 3 day", "value": 17.87, "unit": "x10E3/uL"}, {"measurement": "LYMPHOCYTE", "setting": "72 h, time 3 day", "value": 89.67, "unit": "%"}, {"measurement": "MEAN CORPUSCULAR HEMOGLOBIN", "setting": "72 h, time 3 day", "value": 25.6, "unit": "pg"}, {"measurement": "MEAN CORPUSCULAR HEMOGLOBIN CONCENTRATION", "setting": "72 h, time 3 day", "value": 39.1, "unit": "G/DL"}, {"measurement": "MEAN CORPUSCULAR VOLUME", "setting": "72 h, time 3 day", "value": 65.47, "unit": "fL"}, {"measurement": "MONOCYTE", "setting": "72 h, time 3 day", "value": 0.67, "unit": "%"}, {"measurement": "NEUTROPHIL", "setting": "72 h, time 3 day", "value": 9.33, "unit": "%"}, {"measurement": "NUCLEATED RED BLOOD CELLS", "setting": "72 h, time 3 day", "value": "0.33 /100WBC"}, {"measurement": "PLATELET COUNT", "setting": "72 h, time 3 day", "value": 1350, "unit": "x10E3/uL"}, {"measurement": "ALANINE AMINOTRANSFERASE", "setting": "72 h, time 3 day", "value": 62.33, "unit": "u/L"}, {"measurement": "ALBUMIN", "setting": "72 h, time 3 day", "value": 4.27, "unit": "G/DL"}, {"measurement": "ALKALINE PHOSPHATASE", "setting": "72 h, time 3 day", "value": 546.33, "unit": "u/L"}, {"measurement": "ASPARTATE AMINOTRANSFERASE", "setting": "72 h, time 3 day", "value": 100.33, "unit": "u/L"}, {"measurement": "BLOOD UREA NITROGEN", "setting": "72 h, time 3 day", "value": 17.33, "unit": "mg/dL"}, {"measurement": "CARBON DIOXIDE", "setting": "72 h, time 3 day", "value": 24.67, "unit": "mmol/L"}, {"measurement": "CHLORIDE", "setting": "72 h, time 3 day", "value": 107.67, "unit": "MEQ/L"}, {"measurement": "CHOLESTEROL", "setting": "72 h, time 3 day", "value": 71, "unit": "mg/dL"}, {"measurement": "CREATINE PHOSPHOKINASE", "setting": "72 h, time 3 day", "value": 318.67, "unit": "u/L"}, {"measurement": "CREATININE", "setting": "72 h, time 3 day", "value": 0.21, "unit": "mg/dL"}, {"measurement": "GLUCOSE", "setting": "72 h, time 3 day", "value": 160.67, "unit": "mg/dL"}, {"measurement": "LACTATE DEHYDROGENASE", "setting": "72 h, time 3 day", "value": 438.67, "unit": "u/L"}, {"measurement": "LIPASE", "setting": "72 h, time 3 day", "value": 10, "unit": "u/L"}, {"measurement": "PHOSPHORUS", "setting": "72 h, time 3 day", "value": 13.7, "unit": "mg/dL"}, {"measurement": "POTASSIUM", "setting": "72 h, time 3 day", "value": 6.67, "unit": "MEQ/L"}, {"measurement": "SODIUM", "setting": "72 h, time 3 day", "value": 149.33, "unit": "MEQ/L"}, {"measurement": "TOTAL BILIRUBIN", "setting": "72 h, time 3 day", "value": 0.2, "unit": "mg/dL"}, {"measurement": "TOTAL PROTEIN", "setting": "72 h, time 3 day", "value": 5.87, "unit": "G/DL"}, {"measurement": "URIC ACID", "setting": "72 h, time 3 day", "value": 1.47, "unit": "mg/dL"}, {"measurement": "ABSOLUTE BASOPHIL", "setting": "120 h, time 5 day", "value": 0, "unit": "CELLS/uL"}, {"measurement": "ABSOLUTE EOSINOPHIL", "setting": "120 h, time 5 day", "value": 0, "unit": "CELLS/uL"}, {"measurement": "ABSOLUTE LYMPHOCYTE", "setting": "120 h, time 5 day", "value": 10793.33, "unit": "CELLS/uL"}, {"measurement": "ABSOLUTE MONOCYTE", "setting": "120 h, time 5 day", "value": 47.67, "unit": "CELLS/uL"}, {"measurement": "ABSOLUTE SEGMENTED NEUTROPHIL", "setting": "120 h, time 5 day", "value": 492.33, "unit": "CELLS/uL"}, {"measurement": "BASOPHIL", "setting": "120 h, time 5 day", "value": 0, "unit": "%"}, {"measurement": "EOSINOPHIL", "setting": "120 h, time 5 day", "value": 0, "unit": "%"}, {"measurement": "ERYTHROCYTE COUNT", "setting": "120 h, time 5 day", "value": 5.84, "unit": "x10E6/uL"}, {"measurement": "HEMATOCRIT", "setting": "120 h, time 5 day", "value": 36.73, "unit": "%"}, {"measurement": "HEMOGLOBIN", "setting": "120 h, time 5 day", "value": 13.57, "unit": "G/DL"}, {"measurement": "LEUKOCYTE COUNT", "setting": "120 h, time 5 day", "value": 11.33, "unit": "x10E3/uL"}, {"measurement": "LYMPHOCYTE", "setting": "120 h, time 5 day", "value": 95.33, "unit": "%"}, {"measurement": "MEAN CORPUSCULAR HEMOGLOBIN", "setting": "120 h, time 5 day", "value": 23.23, "unit": "pg"}, {"measurement": "MEAN CORPUSCULAR HEMOGLOBIN CONCENTRATION", "setting": "120 h, time 5 day", "value": 36.97, "unit": "G/DL"}, {"measurement": "MEAN CORPUSCULAR VOLUME", "setting": "120 h, time 5 day", "value": 62.93, "unit": "fL"}, {"measurement": "MONOCYTE", "setting": "120 h, time 5 day", "value": 0.33, "unit": "%"}, {"measurement": "NEUTROPHIL", "setting": "120 h, time 5 day", "value": 4.33, "unit": "%"}, {"measurement": "NUCLEATED RED BLOOD CELLS", "setting": "120 h, time 5 day", "value": "0.33 /100WBC"}, {"measurement": "PLATELET COUNT", "setting": "120 h, time 5 day", "value": 1319.67, "unit": "x10E3/uL"}, {"measurement": "ALANINE AMINOTRANSFERASE", "setting": "120 h, time 5 day", "value": 45, "unit": "u/L"}, {"measurement": "ALBUMIN", "setting": "120 h, time 5 day", "value": 4.5, "unit": "G/DL"}, {"measurement": "ALKALINE PHOSPHATASE", "setting": "120 h, time 5 day", "value": 368, "unit": "u/L"}, {"measurement": "ASPARTATE AMINOTRANSFERASE", "setting": "120 h, time 5 day", "value": 79.67, "unit": "u/L"}, {"measurement": "BLOOD UREA NITROGEN", "setting": "120 h, time 5 day", "value": 18.33, "unit": "mg/dL"}, {"measurement": "CARBON DIOXIDE", "setting": "120 h, time 5 day", "value": 23, "unit": "mmol/L"}, {"measurement": "CHLORIDE", "setting": "120 h, time 5 day", "value": 105.33, "unit": "MEQ/L"}, {"measurement": "CHOLESTEROL", "setting": "120 h, time 5 day", "value": 65, "unit": "mg/dL"}, {"measurement": "CREATINE PHOSPHOKINASE", "setting": "120 h, time 5 day", "value": 458.33, "unit": "u/L"}, {"measurement": "CREATININE", "setting": "120 h, time 5 day", "value": 0.21, "unit": "mg/dL"}, {"measurement": "GLUCOSE", "setting": "120 h, time 5 day", "value": 166, "unit": "mg/dL"}, {"measurement": "LACTATE DEHYDROGENASE", "setting": "120 h, time 5 day", "value": 154.67, "unit": "u/L"}, {"measurement": "LIPASE", "setting": "120 h, time 5 day", "value": 10.33, "unit": "u/L"}, {"measurement": "PHOSPHORUS", "setting": "120 h, time 5 day", "value": 13.7, "unit": "mg/dL"}, {"measurement": "POTASSIUM", "setting": "120 h, time 5 day", "value": 7.08, "unit": "MEQ/L"}, {"measurement": "SODIUM", "setting": "120 h, time 5 day", "value": 148.67, "unit": "MEQ/L"}, {"measurement": "TOTAL BILIRUBIN", "setting": "120 h, time 5 day", "value": 0.2, "unit": "mg/dL"}, {"measurement": "TOTAL PROTEIN", "setting": "120 h, time 5 day", "value": 6.43, "unit": "G/DL"}, {"measurement": "URIC ACID", "setting": "120 h, time 5 day", "value": 2.37, "unit": "mg/dL"}]}]}
